# Columns and labels:
# [1] = tested on: Aspergillus fumigatus; experiment: In vitro antifungal MIC for molds (NCCLS M-38P); assay type: cell-based; set-up: mic against af: unit not given here
# Protocol: (§1) Extracts/fractions/pure compounds obtained from B. vitiensis were tested in in-vitro antifungal activity against five pathogenic fungi in terms of minimum inhibitory concentration (mic,mg/ml) following reference methods. Mics for yeasts: Candida albicans (ca), Cryptococcus neoformans (cn) and Sporothrix schenckii (spo) were determined by broth micro-dilution method according to guide lines of nccls documents m-27a1 (National Committee for Clinical Standards (1997) reference method for broth dilution. Antifungal susceptibility testing of yeast approved standards document m-27a, nccls, wayne, Pa.) In RPMI-1640 medium buffered at pH 7.0 with 0.165 m morpholine propane sulphonic acid (mops: Sigma USA moris; Mo.). Assays were performed in flat bottomed 96 wells microlitre plate. Stock solution of products were prepared in DMSO and diluted by two-fold serial dilution. […] The susceptibilities of molds Aspergillus fumigatus (af) and Frichophyton mentagrophytes (tm) were determined by the NCCLS proposed document m-38p2 (National Committee for Clinical laboratory Standards (1997) reference method for broth dilution antifungal susceptibility testing of Aspergillus, proposed standards document m-38 p, nccls, wayne, Pa.). […]
# [2] = tested on: human spermatozoa; experiment: Spermicidal activity in vitro, Sander Cramer assay; assay type: cell-based
# Protocol: The spermicidal activity was determined by the Sander Cramer assay (Sander, F. V., Cramer, S. D., Human Fertility, (1941) Vol. 6, p-134) using physiological saline (0.85% NaCl). Aqueous solutions (1.0% i.e. 10 mg/ml) of different fractions of B. vitiensis were prepared in physiological saline, which were diluted further up to a concentration of 0.01%. Human semen (0.2 ml) was mixed with each test solution (1.0 ml) separately and vortexed for 10 s. A wet mount of each preparation was immediately examined under a phase contrast microscope. The lowest spermicidal concentration that completely immobilized 100% of the spermatozoa within 20 s. was referred to as MEC (minimum effective concentration). The activity was confirmed in three different semen samples with >50×10^6/ml sperm count and >50% motility.
# [3] = tested on: trichophyton mentagrophytes; experiment: In vitro antifungal MIC for molds (NCCLS M-38P); assay type: cell-based
# Protocol: as §1
# [4] = tested on: Aspergillus niger, A. oryzae, Penicillium citrinum, P. chrysogenum, Mucor spinescens, Cladosporium herbarium, Rhodotorula rubra, Trichophyton mentagrophytes, T.; conditions: panel of eleven fungi; literature report; cited from earlier work
# [5] = tested on: Sporothrix schenckii; experiment: In vitro antifungal MIC, broth micro-dilution (NCCLS M-27A); assay type: cell-based
# Protocol: (§2) Extracts/fractions/pure compounds obtained from B. vitiensis were tested in in-vitro antifungal activity against five pathogenic fungi in terms of minimum inhibitory concentration (mic,mg/ml) following reference methods. Mics for yeasts: Candida albicans (ca), Cryptococcus neoformans (cn) and Sporothrix schenckii (spo) were determined by broth micro-dilution method according to guide lines of nccls documents m-27a1 (National Committee for Clinical Standards (1997) reference method for broth dilution. Antifungal susceptibility testing of yeast approved standards document m-27a, nccls, wayne, Pa.) In RPMI-1640 medium buffered at pH 7.0 with 0.165 m morpholine propane sulphonic acid (mops: Sigma USA moris; Mo.). Assays were performed in flat bottomed 96 wells microlitre plate. Stock solution of products were prepared in DMSO and diluted by two-fold serial dilution. The working suspension (0.5×103 to 2.5×103) of the innoculum, prepared spectrophotometrically (0.5 mc Farland turbidity standard) was made by a 1:50 dilution followed by a 1:20 dilution of the seeded broth in RPMI-1640. Suitable controls were maintained simultaneously. Plates were incubated at 35° C. and observed visually at 24 hr for ca and 48 hr cn and spo. The susceptibilities of molds Aspergillus fumigatus (af) and Frichophyton mentagrophytes (tm) were determined by the NCCLS proposed document m-38p2 (National Committee for Clinical laboratory Standards (1997) reference method for broth dilution antifungal susceptibility testing of Aspergillus, proposed standards document m-38 p, nccls, wayne, Pa.). In brief, cultures were grown on sabouraud dextrose agar at 35° C. until sporulation occurred. Spores were suspended in 0.85% normal saline and diluted in RPMI-1640 to yield 104 cf p/ml.
# [6] = tested on: Cryptococcus neoformans; experiment: as above; assay type: cell-based
# Protocol: as §2
# [7] = tested on: Candida albicans; experiment: as above; assay type: cell-based
# Protocol: as §2
# [8] = read at 48 hr, tested at 1000-1.95 mg/ml
substance,measurement,setting,value
Bivittoside-D [K007],mic against af,[1]; Aspergillus fumigatus,12.57
same,"Mics against pathogenic fungi, Af","[1]; aspergillus fumigates, tested at 1000-1.95 mg/ml",12.5 μg/mi.
same,spermicidal activity (in words),[2]; in vitro model,promising spermicidal
same,Mec (minimum effective concentration),[2]; lowest concentration that completely immobilized 100% of human spermatozoa within 20 s,0.05%
same,mic against tm,[3],1.56 mg/mL
same,"Mics against pathogenic fungi, tm",[3]; tested at 1000-1.95 mg/ml,1.56 μg/mi.
same,antifungal activities (in words),[4],significant antifungal activities
same,mic against spo,[5],6.25 mg/mL
same,"Mics against pathogenic fungi, spo",[5]; [8],1.56 μg/mi.
same,mic against cn,[6],6.25 mg/mL
same,"Mics against pathogenic fungi, Cn",[6]; [8],6.25 μg/mi.
same,mic against ca,[7],3.12 µg/mL
same,"Mics against pathogenic fungi, ca","[7]; read at 24 hr, tested at 1000-1.95 mg/ml",3.12 μg/mi.

# Reference: patent US20050208147A1, “Isolation of bivittoside D from sea cucumber and activity thereof” (Council of Scientific and Industrial Research, priority 2004, published 2005)
